Legend:
[1] = biological target: Anti-cotinine antibody (SEQ ID NO: 11 / SEQ ID NO: 12, rabbit variable region with human IgG1 Fc domain); test: Binding of anti-cotinine antibody to ARM compounds by SPR, Biacore T200, 37° C. (Example 202); conditions: pH 7.4, rabbit variable region/human IgG1 Fc antibody captured on protein A
How it was run: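 Run at 37° C. in 10 mM HEPES pH 7.4, 150 mM NaCl, 0.005% P20, 1% DMSO. Compound titrated from 200 nM (five 3-fold steps) over protein A-captured antibody, with 200/2000 s association/dissociation. 1:1 kinetic fit gave kon, koff, Kd and residence time (1/koff); pKd averaged where runs repeated.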

[2] = system: CCR2 expressing cells (CD11b+Ly6c+ Hi) in peripheral blood; test: In vivo depletion assay, flow cytometry of peripheral blood (Example 201); set-up: species or system Human CCR2 (hCCR2) knock-in mice (C57 background); conditions: hCCR2 knock-in mice; IV 0.1 mpk compound + 10 mpk anti-cotinine antibody (SEQ ID NO: 13/14); peripheral blood at 48 hr
Experimental: Stock solution preparation: Stock solutions of compounds of Formula (I) were prepared at 20 mg/mL and 100 mg/mL in DMSO for PK/PD and dose tolerability studies respectively. Stock solutions were stored at −20° C. until further usage.
Formulations preparation: On the day of experiment, the stock solution of the compound of Formula (I) was removed from storage at −20° C. and thawed at room temperature. Anti-cotinine antibody having a heavy chain sequence of SEQ ID NO: 13 and a light chain sequence of SEQ ID NO: 14 (rabbit variable region sequence with mouse IgG2a Fc domain), if required was removed from storage at −80° C. and thawed at room temperature. Antibody vials were immediately transferred into wet ice after thawing. Compounds of Formula (I) were further diluted in DMSO as per experimental requirements.
Formulation composition: The formulation composition was Saline:DMSO:PBS. Saline was added based on the quantity required and then stock solution of the compound of Formula (I) prepared in DMSO, followed by addition of antibody in PBS. Formulations were incubated at room temperature for 30 minutes before administration to the mouse. DMSO was used at 1 to 2% (v/v) in the final formulation.
After bleeding, each mouse was sacrificed by cervical dislocation.
CCR2 depletion in peripheral blood was determined by flow cytometry. Briefly, peripheral blood was collected from all animals at the end of study termination and processed. Blood samples were lysed using 1× RBC Lysis buffer and the resulting cell pellet was washed twice in FACS buffer (HBSS containing 5% FBS). Cells were subjected to Fc blocking using mouse Fc block from Biolegend (Trustain, anti-mouse CD16/32, Cat: 101319) to block non-specific binding followed by surface staining for immune markers (CD45, CD3, CD11b, Ly6C, human CCR2). Surface staining was done for 30 minutes in ice and cells were washed twice to remove unbound antibodies. Cells were stained with 7AAD to determine viability and acquired on BD FACSVerse flow cytometer. Appropriate FMO controls and single-color controls were included in the experiment for gating and compensation respectively.
Percent depletion of CD11b+Ly6c+ Hi cells and CCR2 expression for the different treatment groups was determined.

[3] = system: endogenous target monocytes in human PBMC; test: PBMC ex vivo monocyte depletion flow cytometry assay (Example 200); type: cell-based; conditions: with anti-cotinine antibody SEQ ID NO: 11/12, 18-24 hours, read-out: Ex Vivo Depletion Assay pEC50 (converted)
Experimental: A human PBMC (peripheral blood mononuclear cells) monocyte depletion flow cytometry assay was developed to screen compounds in a 384-well plate format. This assay incorporated endogenous natural killer cells to deplete endogenous target monocytes.
To screen compounds in the human PBMC monocyte depletion flow cytometry assay, 11-point dose-response curves were made from 1 mM stocks in neat DMSO by serially diluting an ARM compound of Formula (I) four-fold into a 384-well plate row-wise. These serially diluted compounds were then stamped into a flat bottom polypropylene 384-well plate (Greiner Bio-One) at 100 nL/well. Fifty microliters of 30 μg/mL anti-cotinine antibody having a heavy chain sequence of SEQ ID NO: 11 and a light chain sequence of SEQ ID NO: 12 (rabbit variable region with human IgG1 Fc domain containing a DE mutation (S239D/1332E)) that had been diluted in assay medium (RPMI 1640 (Gibco) containing 10% fetal bovine serum (Gibco), 1% Glutamax (Gibco) and 1% sodium pyruvate (Corning) was added to the wells of the plate. The plate was centrifuged for 1 min at 500 rpm (revolutions per minute) and then shaken for 5 min at room temperature. The plate was incubated for 15 minutes at 37° C./5% CO2.
Frozen PBMC cells (HemaCare BioResearch) were thawed and centrifuged at 1,200 rpm for 4 minutes. The cells were diluted to a cell density of 2×10^6 cells/mL in assay medium. Fifty microliters of the diluted cells were added to the wells of the plate. The plate was centrifuged for 1 min at 500 rpm and incubated for 18-24 hours at 37° C./5% CO2.
After 18-24 hours incubation, 2 μL of 6.25 μg human FC block (BD Pharmingen) that was diluted in assay medium was added to the wells of the plate. The plate was centrifuged for 1 minute at 500 rpm and then incubated at room temperature for 15 minutes. Five microliters of 750 nM Helix NP NIR (Biolegend) that had been diluted in assay medium was added to the wells of the plate. Nine microliters of antibody cocktail containing 1/5 diluted fluorescein isothiocyanate (FITC) labeled anti-CD45 antibody (Beckman Coulter), PC7 labeled anti-CD14 antibody (Beckman Coulter) and phycoerythrin (PE) anti-CD4 antibody (Beckman Coulter) was then added to the wells of the plate. The plate was centrifuged for 1 min at 500 rpm and incubated for 30 minutes at 4-8° C. Samples from the plate were run on BD FACS Canto II flow cytometer and data was analyzed using FlowJo software.
ARMs compounds of Formula (I) of the invention were tested for the ability to deplete monocytes in the above assay in one or more experimental runs and the results are shown in Table 3 below. Potency of the compounds of the invention is reported as a pEC50 value. The pEC50 value is the negative log of the EC50 value, wherein the EC50 value is the half maximal effective concentration measured in molar (M). For compounds tested in more than one experimental run, the pEC50 value is reported as an average or as the individual values measured

pKd of Antibody for ARM Compound of Formula (I) [1]	SMILES	% Depletion of CCR2 expressing cells [2]	EC50 [3]
9.321	CC(C)N(C)[C@@H]1CC[C@H](N2CC[C@H](Nc3ncnc4ccc(C(F)(F)F)cc34)C2=O)[C@H](NC2CCN(C(=O)CCOCCOCCOCCOCCNC(=O)[C@H]3CC(=O)N(C)[C@@H]3c3cccnc3)CC2)C1 [Example 69]	98.59%	1.58 nM
	CC(C)N(C)[C@@H]1CC[C@H](N2CC[C@H](Nc3ncnc4ccc(C(F)(F)F)cc34)C2=O)[C@H](NC(=O)[C@H]2CC[C@H](N3CCN(S(=O)(=O)C4CCN(C(=O)[C@H](C)NC(=O)[C@H]5CC(=O)N(C)[C@@H]5c5cccnc5)CC4)CC3)CC2)C1 [Example 70, (2S,3S)-N-((S)-1-(4-((4-((1R,4S)-4-(((1R,2S,5R)-5-(isopropyl(methyl)amino)-2-((S)-2-oxo-3-((6-(trifluoromethyl)quinazolin-4-yl)amino)pyrrolidin-1-yl)cyclohexyl)carbamoyl)cyclohexyl)piperazin-1-yl)sulfonyl)piperidin-1-yl)-1-oxopropan-2-yl)-1-methyl-5-oxo-2-(pyridin-3-yl)pyrrolidine-3-carboxamide]	30.51%	0.1 nM
	CC(C)N(C)[C@@H]1CC[C@H](N2CC[C@H](Nc3ncnc4ccc(C(F)(F)F)cc34)C2=O)[C@H](NC(=O)[C@H]2CC[C@@H](N3CCN(S(=O)(=O)C4CCN(C(=O)[C@H](C)NC(=O)[C@H]5CC(=O)N(C)[C@@H]5c5cccnc5)CC4)CC3)CC2)C1 [compound 71]	35.25%	0.794 nM

— patent publication US20250136722A1, “CYTOTOXICITY TARGETING CHIMERAS” (GLAXOSMITHKLINE INTELLECTUAL PROPERTY DEVELOPMENT LIMITED, priority 2021, published 2025)
